Experimental data taken from patent US6472348B1, “Pyridone derivatives and herbicides” (Kumiai Chemical Industry Co., Ltd., priority 1996, dated 2002).

Legend:
Type in all cases: in vivo
pale smartweed (Po) [1] = experiment: Test Example 7: crop plant selectivity by upland field soil treatment (corn), herbicidal effects; parameters: scale not given here; conditions: dose 6.3 g ai/10a, 21st day after application
Procedure: (§1) (Test on Crop Plant Selectivity by Upland Field Soil Treatment)
(§2) In a plastic pot (surface area: 600 cm^2) filled with sand, corn (Ze), green foxtail (Se), pale smartweed (Po), slender amaranth (Am), common lambsquarters (Ch) and China jute (Ab) were sown and covered with soil. […] The plants were then cultured in a green house, and the evaluation of the herbicidal effects and phytotoxicity was conducted on the 21st day after the application in accordance with the standards as identified in Table 47.

China jute (Ab) [2] = experiment: as above; parameters: scale not given here; conditions: dose 6.3 g ai/10a, 21st day after application
Procedure: as §1, §2

green foxtail (Se) [3] = experiment: as above; parameters: scale not given here; conditions: dose 6.3 g ai/10a, 21st day after application
Procedure: as §1, §2

slender amaranth (Am) [4] = experiment: as above; parameters: scale not given here; conditions: dose 6.3 g ai/10a, 21st day after application
Procedure: as §1, §2

[5] = tested on: common lambsquarters (Ch); experiment: as above; parameters: scale not given here; conditions: dose 6.3 g ai/10a, 21st day after application
Procedure: as §1, §2

pale smartweed (Po) [6] = experiment: Test Example 4: crop plant selectivity by upland field soil treatment (cotton), herbicidal effects; parameters: scale not given here; conditions: dose 6.3 g ai/10 a, evaluated 21st day after application
Procedure: as §1
(§3) In a plastic pot (surface area: 600 cm^2) filled with sand, cotton (Go), Diaitaria ciliaris (Di), green foxtail (Se), pale smartweed (Po), slender amaranth (Am), common lambsquarters (Ch) and China jute (Ab) were sown and covered with soil. […] The plants were then cultured in a green house, and the evaluation of the herbicidal effects and phytotoxicity was conducted on the 21st day after the application in accordance with the standards as identified in Table 47. Symbol—represents “not tested”.

China jute (Ab) [7] = experiment: as above; parameters: scale not given here; conditions: dose 6.3 g ai/10 a, evaluated 21st day after application
Procedure: as §1, §3

green foxtail (Se) [8] = experiment: as above; parameters: scale not given here; conditions: dose 6.3 g ai/10 a, evaluated 21st day after application
Procedure: as §1, §3

slender amaranth (Am) [9] = experiment: as above; parameters: scale not given here; conditions: dose 6.3 g ai/10 a, evaluated 21st day after application
Procedure: as §1, §3

[10] = tested on: common lambsquarters (Ch); experiment: as above; parameters: scale not given here; conditions: dose 6.3 g ai/10 a, evaluated 21st day after application
Procedure: as §1, §3

barnyardgrass (Ec) [11] = experiment: Test Example 1: herbicidal effects by paddy field soil treatment; conditions: 100 g of the active ingredient per 10 ares, 21st day after the application, index 0-5 of Table 47;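 also: grade of growth control; 5 = at least 90%; 4 = 70 to 90%; 3 = 50 to 70%; 2 = 30 to 50%; 1 = 10 to 30%; 0 = under 10%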
In short: (§4)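 Scoring of herbicidal effect came 21 days after application of 100 g active ingredient per 10 ares to flooded (3 cm) paddy-soil pots sown with barnyardgrass, monochoria and bulrush, kept in a greenhouse.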

monochoria (Mo) = experiment: as above; conditions: 100 g of the active ingredient per 10 ares, 21st day after the application, index 0-5 of Table 47;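 also: grade of growth control; 5 = at least 90%; 4 = 70 to 90%; 3 = 50 to 70%; 2 = 30 to 50%; 1 = 10 to 30%; 0 = under 10%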
In short: as §4

bulrush (Sc) = experiment: as above; conditions: 100 g of the active ingredient per 10 ares, 21st day after the application, index 0-5 of Table 47;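 also: grade of growth control; 5 = at least 90%; 4 = 70 to 90%; 3 = 50 to 70%; 2 = 30 to 50%; 1 = 10 to 30%; 0 = under 10%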
In short: as §4

corn (Ze) = experiment: Test Example 7: crop plant selectivity by upland field soil treatment (corn), phytotoxicity; parameters: scale not given here; conditions: dose 6.3 g ai/10a, 21st day after application
Procedure: as §1, §2

cotton (Go) = experiment: Test Example 4: crop plant selectivity by upland field soil treatment (cotton), phytotoxicity; parameters: scale not given here; conditions: dose 6.3 g ai/10 a, evaluated 21st day after application
Procedure: as §1, §3

pale smartweed (Po) [12] = experiment: Test Example 6: crop plant selectivity by upland field soil treatment (soybean), herbicidal effects; parameters: scale not given here; conditions: dose 6.3 g ai/10a, 21st day after application
Procedure: as §1
(§5) In a plastic pot (surface area: 600 cm^2) filled with sand, soybean (Gl), Diaitaria ciliaris (Di), green foxtail (Se), Johnsongrass (So), pale smartweed (Po), slender amaranth (Am), common lambsquarters (Ch) and China jute (Ab) were sown and covered with soil. […] The plants were then cultured in a green house, and the evaluation of the herbicidal effects and phytotoxicity was conducted on the 21st day after the application in accordance with the standards as identified in Table 47. Symbol—represents “not tested”.

China jute (Ab) [13] = experiment: as above; parameters: scale not given here; conditions: dose 6.3 g ai/10a, 21st day after application
Procedure: as §1, §5

green foxtail (Se) [14] = experiment: as above; parameters: scale not given here; conditions: dose 6.3 g ai/10a, 21st day after application
Procedure: as §1, §5

slender amaranth (Am) [15] = experiment: as above; parameters: scale not given here; conditions: dose 6.3 g ai/10a, 21st day after application
Procedure: as §1, §5

[16] = tested on: common lambsquarters (Ch); experiment: as above; parameters: scale not given here; conditions: dose 6.3 g ai/10a, 21st day after application
Procedure: as §1, §5

soybean (Gl) = experiment: Test Example 6: crop plant selectivity by upland field soil treatment (soybean), phytotoxicity; parameters: scale not given here; conditions: dose 6.3 g ai/10a, 21st day after application
Procedure: as §1, §5

barnyardgrass (Ec) [17] = experiment: Test Example 3: herbicidal effects by upland field foliage treatment; parameters: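 grade of growth control; 5 = at least 90%; 4 = 70 to 90%; 3 = 50 to 70%; 2 = 30 to 50%; 1 = 10 to 30%; 0 = under 10%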; conditions: 100 g of the active ingredient per 10 ares, evaluated on the 14th day after treatment
In short: (§6)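 Sowing into sand pots with a 120 cm^2 surface, followed by soil covering and 2 weeks of greenhouse growth, preceded the leaf treatment. Scoring of weed control took place on the 14th day afterwards according to set evaluation criteria.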

pale smartweed (Po) [18] = experiment: as above; parameters: scale not given here; conditions: 100 g of the active ingredient per 10 ares, evaluated on the 14th day after treatment
In short: as §6

rice flatsedge (Ci) [19] = experiment: as above; parameters: scale not given here; conditions: 100 g of the active ingredient per 10 ares, evaluated on the 14th day after treatment
In short: as §6

slender amaranth (Am) [20] = experiment: as above; parameters: scale not given here; conditions: 100 g of the active ingredient per 10 ares, evaluated on the 14th day after treatment
In short: as §6

Diaitaria ciliaris (Di) = experiment: as above; parameters: scale not given here; conditions: 100 g of the active ingredient per 10 ares, evaluated on the 14th day after treatment
In short: as §6

[21] = tested on: common lambsquarters (Ch); experiment: as above; parameters: scale not given here; conditions: 100 g of the active ingredient per 10 ares, evaluated on the 14th day after treatment
In short: as §6

barnyardgrass (Ec) [22] = experiment: Test Example 2: herbicidal effects by upland field soil treatment; conditions: 100 g of the active ingredient per 10 ares, 21st day after the application, index 0-5 of Table 47;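 also: grade of growth control; 5 = at least 90%; 4 = 70 to 90%; 3 = 50 to 70%; 2 = 30 to 50%; 1 = 10 to 30%; 0 = under 10%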
From the text: (§7) (Test on Herbicidal Effects by Upland Field Soil Treatment)

Digitaria ciliaris (Di) = experiment: as above; conditions: 100 g of the active ingredient per 10 ares, 21st day after the application, index 0-5 of Table 47
From the text: as §7

pale smartweed (Po) [23] = experiment: as above; conditions: 100 g of the active ingredient per 10 ares, 21st day after the application, index 0-5 of Table 47
From the text: as §7

rice flatsedge (Ci) [24] = experiment: as above; conditions: 100 g of the active ingredient per 10 ares, 21st day after the application, index 0-5 of Table 47
From the text: as §7

slender amaranth (Am) [25] = experiment: as above; conditions: 100 g of the active ingredient per 10 ares, 21st day after the application, index 0-5 of Table 47
From the text: as §7

[26] = tested on: common lambsquarters (Ch); experiment: as above; conditions: 100 g of the active ingredient per 10 ares, 21st day after the application, index 0-5 of Table 47
From the text: as §7

pale smartweed (Po) [27] = experiment: Test Example 5: crop plant selectivity by upland field soil treatment (wheat), herbicidal effects; parameters: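 grade of growth control; 5 = at least 90%; 4 = 70 to 90%; 3 = 50 to 70%; 2 = 30 to 50%; 1 = 10 to 30%; 0 = under 10%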; conditions: 21st day after application
Procedure: as §1
(§8) In a plastic pot (surface area: 600 cm^2) filled with sand, wheat (Tr), Diaitaria ciliaris (Di), green foxtail (Se), pale smartweed (Po), slender amaranth (Am), common lambsquarters (Ch) and China jute (Ab) were sown and covered with soil. […] The plants were then cultured in a green house, and the evaluation of the herbicidal effects and phytotoxicity was conducted on the 21st day after the application in accordance with the standards as identified in Table 47. Symbol—represents “not tested”.

green foxtail (Se) [28] = experiment: as above; parameters: scale not given here; conditions: 21st day after application
Procedure: as §1, §8

slender amaranth (Am) [29] = experiment: as above; parameters: scale not given here; conditions: 21st day after application
Procedure: as §1, §8

[30] = tested on: common lambsquarters (Ch); experiment: as above; parameters: scale not given here; conditions: 21st day after application
Procedure: as §1, §8

wheat (Tr) = experiment: Test Example 5: crop plant selectivity by upland field soil treatment (wheat), phytotoxicity; parameters: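 grade of crop injury; 5 = at least 90%; 4 = 70 to 90%; 3 = 50 to 70%; 2 = 30 to 50%; 1 = 10 to 30%; 0 = under 10%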; conditions: 21st day after application
Procedure: as §1, §8

China jute (Ab) [31] = experiment: Test Example 5: crop plant selectivity by upland field soil treatment (wheat), herbicidal effects; parameters: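 grade of growth control; 5 = at least 90%; 4 = 70 to 90%; 3 = 50 to 70%; 2 = 30 to 50%; 1 = 10 to 30%; 0 = under 10%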; conditions: dose 6.3 g ai/10a, 21st day after application
Procedure: as §1, §8

Structure (SMILES)	Herbicidal effects Po (pale smartweed (Po) [1])	Herbicidal effects Ab (China jute (Ab) [2])	Herbicidal effects Se (green foxtail (Se) [3])	Herbicidal effects Am (slender amaranth (Am) [4])	Herbicidal effects Ch [5]	Herbicidal effects Po (pale smartweed (Po) [6])	Herbicidal effects Ab (China jute (Ab) [7])	Herbicidal effects Se (green foxtail (Se) [8])	Herbicidal effects Am (slender amaranth (Am) [9])	Herbicidal effects Ch [10]	Herbicidal effects Ec (barnyardgrass (Ec) [11])	Herbicidal effects Mo (monochoria (Mo))	Herbicidal effects Sc (bulrush (Sc))	Phytotoxicity Ze (corn (Ze))	Phytotoxicity Go (cotton (Go))	Herbicidal effects Po (pale smartweed (Po) [12])	Herbicidal effects Ab (China jute (Ab) [13])	Herbicidal effects Se (green foxtail (Se) [14])	Herbicidal effects Am (slender amaranth (Am) [15])	Herbicidal effects Ch [16]	other results
CCOc1cc(-c2ccc(C(F)(F)F)n(C)c2=O)c(F)cc1Cl [1-150]	5	5	5	5	5	5	5	5	5	5	5	5	5	1	0	5	5	5	5	5	Phytotoxicity Gl (soybean (Gl)): 1; Herbicidal effects Ec (barnyardgrass (Ec) [17]): 5; Herbicidal effects Po (pale smartweed (Po) [18]): 5; Herbicidal effects Ci (rice flatsedge (Ci) [19]): 5; Herbicidal effects Am (slender amaranth (Am) [20]): 5; Herbicidal effects Di (Diaitaria ciliaris (Di)): 5; Herbicidal effects Ch [21]: 5; Herbicidal effects Ec (barnyardgrass (Ec) [22]): 5; Herbicidal effects Di (Digitaria ciliaris (Di)): 5; Herbicidal effects Po (pale smartweed (Po) [23]): 5; Herbicidal effects Ci (rice flatsedge (Ci) [24]): 5; Herbicidal effects Am (slender amaranth (Am) [25]): 5; Herbicidal effects Ch [26]: 5
CCCOc1cc(-c2ccc(C(F)(F)F)n(C)c2=O)c(F)cc1Cl [1-154]	5	5	5	5	5	5	5	5	5	5	5	5	5	1	0	5	5	5	5	5	Herbicidal effects Po (pale smartweed (Po) [27]; dose 1.6 g ai/10a): 5; Herbicidal effects Se (green foxtail (Se) [28]; dose 1.6 g ai/10a): 5; Herbicidal effects Am (slender amaranth (Am) [29]; dose 1.6 g ai/10a): 5; Herbicidal effects Ch ([30]; dose 1.6 g ai/10a): 5; Phytotoxicity Tr (wheat (Tr); dose 1.6 g ai/10a): 1; Phytotoxicity Gl (soybean (Gl)): 1; Herbicidal effects Ec (barnyardgrass (Ec) [17]): 5; Herbicidal effects Po (pale smartweed (Po) [18]): 5; Herbicidal effects Ci (rice flatsedge (Ci) [19]): 5; Herbicidal effects Am (slender amaranth (Am) [20]): 5; Herbicidal effects Di (Diaitaria ciliaris (Di)): 5; Herbicidal effects Ch [21]: 5; Herbicidal effects Ec (barnyardgrass (Ec) [22]): 5; Herbicidal effects Di (Digitaria ciliaris (Di)): 5; Herbicidal effects Po (pale smartweed (Po) [23]): 5; Herbicidal effects Ci (rice flatsedge (Ci) [24]): 5; Herbicidal effects Am (slender amaranth (Am) [25]): 5; Herbicidal effects Ch [26]: 5
CCC(C)Oc1cc(-c2ccc(C(F)(F)F)n(C)c2=O)c(F)cc1Cl (centres unmarked) [1-167]	5	5	5	5	5	5	5	5	5	5	5	5	5	0	1	5	5	5	5	5	Herbicidal effects Po (pale smartweed (Po) [27]; dose 6.3 g ai/10a): 5; Herbicidal effects Ab (China jute (Ab) [31]): 5; Herbicidal effects Se (green foxtail (Se) [28]; dose 6.3 g ai/10a): 5; Herbicidal effects Am (slender amaranth (Am) [29]; dose 6.3 g ai/10a): 5; Herbicidal effects Ch ([30]; dose 6.3 g ai/10a): 5; Phytotoxicity Tr (wheat (Tr); dose 6.3 g ai/10a): 1; Phytotoxicity Gl (soybean (Gl)): 1; Herbicidal effects Ec (barnyardgrass (Ec) [17]): 5; Herbicidal effects Po (pale smartweed (Po) [18]): 5; Herbicidal effects Ci (rice flatsedge (Ci) [19]): 5; Herbicidal effects Am (slender amaranth (Am) [20]): 5; Herbicidal effects Di (Diaitaria ciliaris (Di)): 5; Herbicidal effects Ch [21]: 5; Herbicidal effects Ec (barnyardgrass (Ec) [22]): 5; Herbicidal effects Di (Digitaria ciliaris (Di)): 5; Herbicidal effects Po (pale smartweed (Po) [23]): 5; Herbicidal effects Ci (rice flatsedge (Ci) [24]): 5; Herbicidal effects Am (slender amaranth (Am) [25]): 5; Herbicidal effects Ch [26]: 5
